In ChEMBL document CHEMBL6121060, “Discovery and Development of CFTR Modulators for the Treatment of Cystic Fibrosis” (J Med Chem, 2025):
In brackets after ≈: the same amount, converted by molar mass. Each block holds one compound with its values, some of them ahead of it.

Experiments:
[1] = target: T1, Cystic fibrosis transmembrane conductance regulator (Homo sapiens, UniProt P13569, F508DEL); experiment: Activation of CFTR F508del mutant (unknown origin)
[2] = Half life in rat at 3 mg/kg, iv measured for 24 hrs by LC-MS/MS analysis; type: ADME, organism-based; conditions: in vivo
[3] = Intrinsic clearance in mouse liver microsomes by HPLC-MS/MS analysis; type: ADME, Microsome; conditions: read-out: CLH (converted)
[4] = Clearance in rat liver microsomes by LC-MS/MS analysis; type: ADME, Microsome
[5] = target: T2, Nuclear receptor subfamily 1 group I member 2 (Homo sapiens, UniProt O75469); experiment: Activation of PXR (unknown origin) at 10 uM relative to rifampicin
T2 sequence (O75469 whole entry): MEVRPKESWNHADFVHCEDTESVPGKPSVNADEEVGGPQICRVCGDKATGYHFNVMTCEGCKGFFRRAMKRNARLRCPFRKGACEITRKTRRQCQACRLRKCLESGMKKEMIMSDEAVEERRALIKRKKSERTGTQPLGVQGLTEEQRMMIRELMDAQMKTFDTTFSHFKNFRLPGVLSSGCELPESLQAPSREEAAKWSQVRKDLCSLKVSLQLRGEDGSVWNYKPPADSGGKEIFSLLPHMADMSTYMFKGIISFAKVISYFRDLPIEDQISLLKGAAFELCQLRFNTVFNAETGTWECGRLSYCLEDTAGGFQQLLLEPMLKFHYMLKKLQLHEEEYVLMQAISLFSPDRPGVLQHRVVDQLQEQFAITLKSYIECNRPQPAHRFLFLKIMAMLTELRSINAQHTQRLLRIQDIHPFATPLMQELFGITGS

[6] = Intrinsic clearance in rat liver microsomes by HPLC-MS/MS analysis; type: ADME, Microsome; conditions: read-out: CLH (converted)
[7] = Volume of distribution at steady state in rat at 3 mg/kg, iv measured for 24 hrs by LC-MS/MS analysis; type: ADME, organism-based; conditions: in vivo, read-out: Vdss
[8] = target: T1, Cystic fibrosis transmembrane conductance regulator; experiment: Potentiation of CFTR F508del mutant (unknown origin)
[9] = Metabolic stability in rat liver microsomes assessed as intrinsic clearance; type: ADME, Microsome
[10] = Solubility of compound at pH 6.8 incubated for 12 hrs by HPLC analysis; type: physicochemical; conditions: buffer
[11] = Apparent permeability across apical to basolateral side in MDCK cells; type: ADME, cell-based, Canis lupus familiaris; conditions: dog
[12] = target: T1, Cystic fibrosis transmembrane conductance regulator; experiment: Potentiation of CFTR F508del mutant (unknown origin) expressed in NIH3T3 cells; type: cell-based
[13] = Oral bioavailability in rat; type: ADME, organism-based; conditions: in vivo
[14] = target: T3, PXR (nuclear receptor subfamily 1 group I member 2) (Homo sapiens, UniProt O75469); experiment: Activation of PXR (unknown origin) at 10 uM relative to control; conditions: read-out: Activity
T3 sequence (O75469 whole entry): T2 sequence (O75469 whole entry)

[15] = AUC in rat at 3 mg/kg, po; conditions: in vivo

T1 sequence (P13569 as listed by the source): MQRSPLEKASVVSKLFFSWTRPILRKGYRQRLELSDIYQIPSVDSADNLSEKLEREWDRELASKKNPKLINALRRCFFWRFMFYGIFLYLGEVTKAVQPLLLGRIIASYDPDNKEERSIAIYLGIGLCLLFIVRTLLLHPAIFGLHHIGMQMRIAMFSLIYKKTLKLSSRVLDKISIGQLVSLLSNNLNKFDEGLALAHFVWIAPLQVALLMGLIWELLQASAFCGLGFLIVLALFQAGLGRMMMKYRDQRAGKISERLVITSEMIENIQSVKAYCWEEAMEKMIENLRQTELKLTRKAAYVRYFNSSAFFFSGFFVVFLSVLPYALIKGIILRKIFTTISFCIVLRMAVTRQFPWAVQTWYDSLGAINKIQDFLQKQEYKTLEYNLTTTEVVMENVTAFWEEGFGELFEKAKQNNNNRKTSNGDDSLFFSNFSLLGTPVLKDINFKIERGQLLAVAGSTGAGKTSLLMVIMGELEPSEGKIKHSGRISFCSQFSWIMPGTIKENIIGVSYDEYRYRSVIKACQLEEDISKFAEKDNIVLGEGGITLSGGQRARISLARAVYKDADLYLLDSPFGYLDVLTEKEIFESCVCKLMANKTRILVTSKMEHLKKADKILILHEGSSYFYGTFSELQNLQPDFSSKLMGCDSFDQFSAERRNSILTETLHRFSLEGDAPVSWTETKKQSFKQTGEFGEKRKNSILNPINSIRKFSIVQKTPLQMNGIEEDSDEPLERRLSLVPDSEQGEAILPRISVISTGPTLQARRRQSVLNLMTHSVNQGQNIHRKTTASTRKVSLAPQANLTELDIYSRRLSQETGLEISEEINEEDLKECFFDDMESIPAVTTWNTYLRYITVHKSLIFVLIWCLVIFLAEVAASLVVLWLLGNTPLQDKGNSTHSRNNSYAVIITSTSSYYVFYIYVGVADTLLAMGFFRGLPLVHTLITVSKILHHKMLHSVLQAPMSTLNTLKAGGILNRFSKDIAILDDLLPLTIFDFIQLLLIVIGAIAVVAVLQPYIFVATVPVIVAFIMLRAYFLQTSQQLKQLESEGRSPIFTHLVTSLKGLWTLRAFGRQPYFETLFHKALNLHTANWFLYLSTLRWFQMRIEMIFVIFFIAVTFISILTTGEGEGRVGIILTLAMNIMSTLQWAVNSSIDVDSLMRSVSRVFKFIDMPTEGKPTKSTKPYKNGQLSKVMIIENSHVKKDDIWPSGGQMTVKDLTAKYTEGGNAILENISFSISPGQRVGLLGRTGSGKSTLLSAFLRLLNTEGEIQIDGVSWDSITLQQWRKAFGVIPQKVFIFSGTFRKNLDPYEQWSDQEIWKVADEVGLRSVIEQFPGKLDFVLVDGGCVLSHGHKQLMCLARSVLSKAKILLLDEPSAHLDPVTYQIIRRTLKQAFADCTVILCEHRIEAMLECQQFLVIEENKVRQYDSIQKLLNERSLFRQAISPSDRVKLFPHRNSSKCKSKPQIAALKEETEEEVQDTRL

SMILES: COc1ccc(Br)c2c1CCCC2C(=O)NS(=O)(=O)c1cccc2ccccc12 (configuration not stated)
EC50 [1]: < 3000 nM

SMILES: COc1ccc(C2CCC2)c2c1C(C(=O)NS(=O)(=O)c1cccc3ccccc13)C2 (configuration not stated)
EC50 [1]: < 3000 nM

SMILES: CC(C)(CN1CCCCCc2ccccc2-c2nc(ccc2C(F)(F)F)NS(=O)(=O)c2cccc1n2)C(=O)O
EC50 [1]: 4 nM

SMILES: COC(=O)c1nc(I)c(C(F)(F)F)cc1N
EC50 [8]: 360 nM | CLint [9]: 342 µL/min/mg | solubility at 12 h [10]: 13 µg/mL (≈ 37.6 µM)

SMILES: Cc1nn(-c2ccc(F)cc2)c2nc(C(=O)NS(C)(=O)=O)cc(-c3ccc(N4CCOCC4)cc3)c12
EC50 [1]: 1260 nM

SMILES: Cc1nn(C)cc1S(=O)(=O)NC(=O)c1ccc(-n2ccc(OCC3(C(F)(F)F)CCC3)n2)nc1N1C[C@@H](C)CC1(C)C
Papp A→B [11]: 2.7 ×10⁻⁶ cm/s | EC50 [12]: 130 nM | bioavailability [13]: 66% | activity at 10 µM [14]: 3%

SMILES: Cc1nn(C)cc1S(=O)(=O)NC(=O)c1ccc(-n2ccc(OCCC3(C(F)(F)F)CC3)n2)nc1N1C[C@@H](C)CC1(C)C
Papp A→B [11]: 11.7 ×10⁻⁶ cm/s | EC50 [12]: 130 nM | bioavailability [13]: 65% | activity at 10 µM [14]: 4%

SMILES: CC(C)(CN1CCCCCCc2ccccc2-c2nc(ccc2C(F)(F)F)NS(=O)(=O)c2cccc1n2)C(=O)O
EC50 [1]: 80 nM

SMILES: Cc1ccc(C2CCCCCC2)c(OC2(C(=O)NS(=O)(=O)c3cccc(N)n3)CC2)c1
EC50 [1]: 2 nM

SMILES: CCOc1ccc(CC)cc1[C@]1(C(=O)NS(=O)(=O)c2cccc3nc(C)ccc23)CCCO1
EC50 [1]: > 300 nM

SMILES: COc1ccc(C)cc1[C@]1(C(=O)NS(=O)(=O)c2cccc3nc(C)ccc23)C[C@@H]1c1cnc(C(C)C)cn1
EC50 [1]: 30 nM

SMILES: COc1ncc(C2CCC2)cc1C1(C(=O)NS(=O)(=O)c2cccc3c2CCCN3)CC1
EC50 [1]: < 3000 nM

SMILES: C[C@@H]1CN(c2nc(-n3ccc(OCCC4(C(F)(F)F)CC4)n3)ccc2C(=O)NS(=O)(=O)c2ccccc2)C(C)(C)C1 [BAMOCAFTOR]
AUC [15]: 21000 ng·h/mL | Activity [5]: 3% | EC50 [1]: 30 nM

SMILES: Cc1nn(C)cc1S(=O)(=O)NC(=O)c1ccc(-n2ccc(OCC(C)(C)C(F)(F)F)n2)nc1N1C[C@@H](C)CC1(C)C [ELEXACAFTOR]
Papp A→B [11]: 4.5 ×10⁻⁶ cm/s | EC50 [12]: 70 nM | bioavailability [13]: 83% | activity at 10 µM [14]: 2%

SMILES: COc1ccc(C)cc1[C@@]1(C(=O)NS(=O)(=O)c2cccc3nc(C)ccc23)C[C@H](c2ccccc2)CO1 [RISELCAFTOR]
EC50 [1]: 10 nM

The next lines start with the values.

EC50 [1]: 4 nM
SMILES: CCc1ccccc1-c1nc(NS(=O)(=O)c2cccc(N(CC)CCCC(=O)O)n2)ccc1C(F)(F)F

EC50 [1]: 80 nM
SMILES: Cc1ccc(-c2cccc(C(F)(F)F)c2)c(OC2(C(=O)NS(=O)(=O)c3cccc(N4CCC(N)(C(F)(F)F)CC4)n3)CC2)c1

EC50 [1]: 2 nM
SMILES: Cc1ccc(F)cc1-c1nc(NS(=O)(=O)c2cccc(N3CCC[C@@](C)(CC(=O)O)C3)n2)ccc1C(F)(F)F

half-life [2]: 1.3 h | CLint scaled [3]: 300 mL/min/kg | CLH [4]: 31.7 mL/min/kg | Activity [5]: 80% | CLint scaled [6]: 133 mL/min/kg | Vd [7]: 3.2 L/kg | EC50 [1]: 5 nM
SMILES: CC(O)CNC(=O)c1ncc(S(=O)(=O)N2CCC(OC(F)(F)F)CC2)cc1N (configuration not stated)

EC50 [1]: 1.6 nM
SMILES: Nc1cc(S(=O)(=O)c2ccc(C(F)(F)F)cc2)cnc1-c1nnc(CO)o1

EC50 [1]: 1.1 nM
SMILES: Nc1cc(S(=O)(=O)c2ccc(OC(F)(F)F)cc2)cnc1-c1nnc([C@@H](O)c2ccccc2)o1

EC50 [1]: 3 nM
SMILES: CC(C)(CO)CN1CCCCCc2ccccc2-c2nc(ccc2C(F)(F)F)NS(=O)(=O)c2cccc1n2

EC50 [8]: 1860 nM | CLint [9]: 205 µL/min/mg | solubility at 12 h [10]: 40 µg/mL (≈ 140 µM)
SMILES: CNC(=O)c1nc(-c2ccco2)c(C(F)(F)F)cc1N

EC50 [1]: 10 nM
SMILES: CC(C)(CO)CN1CCCCCCc2ccccc2-c2nc(ccc2C(F)(F)F)NS(=O)(=O)c2cccc1n2

EC50 [1]: 100 nM
SMILES: Cc1ccccc1-c1nc(NS(=O)(=O)c2cccc(N3CCC[C@H](CC(=O)O)C3)n2)ccc1C(F)(F)F

EC50 [1]: 5.8 nM
SMILES: Nc1cc(S(=O)(=O)c2ccc(OC(F)(F)F)cc2)cnc1-c1nnc(C(O)C(F)(F)F)o1 (configuration not stated)

Papp A→B [11]: 3.8 ×10⁻⁶ cm/s | EC50 [12]: 170 nM | activity at 10 µM [14]: 3%
SMILES: Cc1c(S(=O)(=O)NC(=O)c2ccc(-n3ccc(OCC(C)(C)C(F)(F)F)n3)nc2N2C[C@@H](C)CC2(C)C)cnn1C

EC50 [1]: 5 nM
SMILES: COc1ccc(C)cc1[C@]1(C(=O)NS(=O)(=O)c2cccc3nc(C)ccc23)C[C@@H]1c1cccc(C(F)(F)F)c1 (racemic)

EC50 [1]: 5.6 nM
SMILES: Nc1cc(S(=O)(=O)c2ccc(OC(F)(F)F)cc2)cnc1-c1nnc(CO)o1 [NAVOCAFTOR]
